Assay results published in the NIST ThermoML archive (doi:10.1021/je900194v).
Several values for one entry are separate records, joined by “and”; a condition that tells them apart may be missing. Equal entries are not always repeated.

What was measured:
[1] = 101 kPa, Liquid; for viscosity: Capillary tube (Ostwald / Ubbelohde) method; for mass density: Vibrating tube method
[2] = xn = mol fraction of the nth substance listed; conditions: 101 kPa, Liquid; for viscosity: Capillary tube (Ostwald / Ubbelohde) method; for mass density: Vibrating tube method

Cc1ccccc1C [1,2-dimethylbenzene]
[1]
Conditions | mass density [kg/m3] | viscosity [mPa·s]
298.15 K | 875.08 | 0.758
308.15 K | 866.62 | 0.665
318.15 K | 858.12 | 0.589

Cc1ccccc1C [1,2-dimethylbenzene] + COC(=O)CCCCl
[2], x2 = 0
Conditions | mass density [kg/m3] | viscosity [mPa·s]
298.15 K | 875.08 | 0.758
308.15 K | 866.62 | 0.665
318.15 K | 858.12 | 0.589

Cc1cccc(C)c1 [1,3-dimethylbenzene]
[1]
Conditions | mass density [kg/m3] | viscosity [mPa·s]
298.15 K | 859.83 | 0.587
308.15 K | 851.19 | 0.524
318.15 K | 842.49 | 0.471

Cc1cccc(C)c1 [1,3-dimethylbenzene] + COC(=O)CCCCl
[2], x2 = 0
Conditions | mass density [kg/m3] | viscosity [mPa·s]
298.15 K | 859.83 | 0.587
308.15 K | 851.19 | 0.524
318.15 K | 842.49 | 0.471

Cc1ccc(C)cc1 [1,4-dimethylbenzene]
[1]
Conditions | mass density [kg/m3] | viscosity [mPa·s]
298.15 K | 856.68 | 0.609
308.15 K | 847.96 | 0.541
318.15 K | 839.2 | 0.484

Cc1ccc(C)cc1 [1,4-dimethylbenzene] + COC(=O)CCCCl
[2], x2 = 0
Conditions | mass density [kg/m3] | viscosity [mPa·s]
298.15 K | 856.68 | 0.609
308.15 K | 847.96 | 0.541
318.15 K | 839.2 | 0.484

c1ccccc1 [benzene]
[1]
Conditions | mass density [kg/m3] | viscosity [mPa·s]
298.15 K | 873.61 | 0.603
308.15 K | 862.28 | 0.533
318.15 K | 852.08 | 0.466

c1ccccc1 [benzene] + COC(=O)CCCCl
[2], x2 = 0
Conditions | mass density [kg/m3] | viscosity [mPa·s]
298.15 K | 873.61 | 0.603
308.15 K | 862.28 | 0.533
318.15 K | 852.08 | 0.466

COC(=O)CCCCl [methyl 4-chlorobutanoate]
[1]
Conditions | mass density | viscosity [mPa·s]
298.15 K | 1116.24 kg/m3 | 1.519
308.15 K | 1105.22 kg/m3 and 1105.23 kg/m3 | 1.279
318.15 K | 1094.13 kg/m3 | 1.089

COC(=O)CCCCl [methyl 4-chlorobutanoate] + Cc1ccc(C)cc1
[2]
Conditions | mass density, 298.15 K [kg/m3] | mass density, 308.15 K [kg/m3] | mass density, 318.15 K [kg/m3] | viscosity, 298.15 K [mPa·s] | viscosity, 308.15 K [mPa·s] | viscosity, 318.15 K [mPa·s]
x1 = 0.0999 | 882.47 | 873.48 | 864.45 | 0.662 | 0.586 | 0.522
x1 = 0.2001 | 908.43 | 899.17 | 889.87 | 0.714 | 0.629 | 0.561
x1 = 0.3 | 934.33 | 924.84 | 915.3 | 0.775 | 0.679 | 0.6
x1 = 0.4001 | 960.27 | 950.54 | 940.77 | 0.847 | 0.738 | 0.651
x1 = 0.4999 | 986.16 | 976.2 | 966.2 | 0.927 | 0.806 | 0.705
x1 = 0.6 | 1012.09 | 1001.91 | 991.69 | 1.023 | 0.886 | 0.772
x1 = 0.7 | 1038.03 | 1027.62 | 1017.19 | 1.133 | 0.978 | 0.846
x1 = 0.8 | 1063.99 | 1053.37 | 1042.71 | 1.255 | 1.077 | 0.926
x1 = 0.9 | 1090.06 | 1079.25 | 1068.37 | 1.385 | 1.179 | 1.008
x1 = 1 | 1116.24 | 1105.23 | 1094.13 | 1.519 | 1.279 | 1.089

COC(=O)CCCCl [methyl 4-chlorobutanoate] + Cc1cccc(C)c1
[2]
Conditions | mass density, 298.15 K [kg/m3] | mass density, 308.15 K [kg/m3] | mass density, 318.15 K [kg/m3] | viscosity, 298.15 K [mPa·s] | viscosity, 308.15 K [mPa·s] | viscosity, 318.15 K [mPa·s]
x1 = 0.0999 | 885.23 | 876.33 | 867.38 | 0.639 | 0.571 | 0.512
x1 = 0.1999 | 910.66 | 901.49 | 892.27 | 0.7 | 0.624 | 0.55
x1 = 0.2999 | 936.14 | 926.72 | 917.26 | 0.769 | 0.674 | 0.596
x1 = 0.399 | 961.41 | 951.74 | 942.03 | 0.843 | 0.737 | 0.649
x1 = 0.4999 | 987.21 | 977.32 | 967.37 | 0.928 | 0.807 | 0.706
x1 = 0.5995 | 1012.73 | 1002.6 | 992.39 | 1.022 | 0.882 | 0.77
x1 = 0.6996 | 1038.43 | 1028.06 | 1017.63 | 1.128 | 0.966 | 0.839
x1 = 0.7992 | 1064.11 | 1053.51 | 1042.83 | 1.238 | 1.062 | 0.92
x1 = 0.8999 | 1090.15 | 1079.3 | 1068.38 | 1.368 | 1.163 | 1.004
x1 = 1 | 1116.24 | 1105.22 | 1094.13 | 1.519 | 1.279 | 1.089

COC(=O)CCCCl [methyl 4-chlorobutanoate] + Cc1ccccc1
[2]
Conditions | mass density, 298.15 K [kg/m3] | mass density, 308.15 K [kg/m3] | mass density, 318.15 K [kg/m3] | viscosity, 298.15 K [mPa·s] | viscosity, 308.15 K [mPa·s] | viscosity, 318.15 K [mPa·s]
x1 = 0.1 | 891.28 | 881.71 | 872.09 | 0.614 | 0.551 | 0.486
x1 = 0.2 | 919.47 | 909.69 | 899.87 | 0.68 | 0.599 | 0.53
x1 = 0.3 | 946.73 | 936.79 | 926.77 | 0.753 | 0.662 | 0.582
x1 = 0.4001 | 973.21 | 963.07 | 952.89 | 0.829 | 0.731 | 0.635
x1 = 0.5 | 998.81 | 988.49 | 978.14 | 0.919 | 0.796 | 0.7
x1 = 0.6 | 1023.69 | 1013.23 | 1002.74 | 1.021 | 0.883 | 0.767
x1 = 0.7 | 1047.84 | 1037.22 | 1026.57 | 1.123 | 0.962 | 0.831
x1 = 0.8 | 1071.31 | 1060.54 | 1049.74 | 1.246 | 1.062 | 0.913
x1 = 0.8998 | 1094.05 | 1083.16 | 1072.21 | 1.38 | 1.17 | 1.001
x1 = 1 | 1116.24 | 1105.22 | 1094.13 | 1.519 | 1.279 | 1.089

COC(=O)CCCCl [methyl 4-chlorobutanoate] + Cc1ccccc1C
[2]
Conditions | mass density, 298.15 K [kg/m3] | mass density, 308.15 K [kg/m3] | mass density, 318.15 K [kg/m3] | viscosity, 298.15 K [mPa·s] | viscosity, 308.15 K [mPa·s] | viscosity, 318.15 K [mPa·s]
x1 = 0.1 | 899.36 | 890.63 | 881.84 | 0.814 | 0.71 | 0.627
x1 = 0.2001 | 923.55 | 914.54 | 905.46 | 0.872 | 0.757 | 0.688
x1 = 0.3 | 947.67 | 938.39 | 929.03 | 0.935 | 0.808 | 0.707
x1 = 0.3998 | 971.75 | 962.19 | 952.59 | 1.001 | 0.863 | 0.752
x1 = 0.4992 | 995.83 | 985.99 | 976.14 | 1.074 | 0.92 | 0.8
x1 = 0.6 | 1020.27 | 1010.17 | 1000.07 | 1.153 | 0.983 | 0.855
x1 = 0.7 | 1044.53 | 1034.19 | 1023.83 | 1.235 | 1.05 | 0.907
x1 = 0.8 | 1068.71 | 1058.13 | 1047.53 | 1.322 | 1.12 | 0.965
x1 = 0.9 | 1092.68 | 1081.88 | 1071.02 | 1.415 | 1.194 | 1.025
x1 = 1 | 1116.24 | 1105.22 | 1094.13 | 1.519 | 1.279 | 1.089

COC(=O)CCCCl [methyl 4-chlorobutanoate] + c1ccccc1
[2]
Conditions | mass density, 298.15 K [kg/m3] | mass density, 308.15 K [kg/m3] | mass density, 318.15 K [kg/m3] | viscosity, 298.15 K [mPa·s] | viscosity, 308.15 K [mPa·s] | viscosity, 318.15 K [mPa·s]
x1 = 0.1 | 905.57 | 894.74 | 883.87 | 0.669 | 0.579 | 0.507
x1 = 0.2001 | 935.29 | 924.42 | 913.49 | 0.731 | 0.634 | 0.553
x1 = 0.3 | 962.99 | 952.12 | 941.13 | 0.799 | 0.69 | 0.601
x1 = 0.4001 | 989.08 | 978.2 | 967.18 | 0.875 | 0.754 | 0.661
x1 = 0.5 | 1013.66 | 1002.77 | 991.75 | 0.96 | 0.828 | 0.719
x1 = 0.5999 | 1036.89 | 1026.01 | 1014.99 | 1.054 | 0.907 | 0.785
x1 = 0.7 | 1058.82 | 1047.97 | 1036.94 | 1.157 | 0.99 | 0.853
x1 = 0.8 | 1079.42 | 1068.49 | 1057.55 | 1.271 | 1.08 | 0.927
x1 = 0.9 | 1098.6 | 1087.62 | 1076.65 | 1.391 | 1.18 | 1.007
x1 = 1 | 1116.24 | 1105.22 | 1094.13 | 1.519 | 1.279 | 1.089

Cc1ccccc1 [toluene]
[1]
Conditions | mass density [kg/m3] | viscosity [mPa·s]
298.15 K | 862.18 | –
308.15 K | 852.81 | 0.499
318.15 K | 843.4 | 0.446

Cc1ccccc1 [toluene] + COC(=O)CCCCl
[2], x2 = 0
Conditions | mass density [kg/m3] | viscosity [mPa·s]
298.15 K | 862.18 | 0.561
308.15 K | 852.81 | 0.499
318.15 K | 843.4 | 0.446
